Data published in paper PMC8750965, “The Isoquinoline-Sulfonamide Compound H-1337 Attenuates SU5416/Hypoxia-Induced Pulmonary Arterial Hypertension in Rats” (Cells, 2021).

Columns and labels:
[1] = test system: phosphorylation of MLC in hPASMCs; test: Western blot of MLC phosphorylation in ET-1-stimulated hPASMCs; conditions: then ET-1 0.1 µM 1 h
Method: Before stimulation, 2 × 10^5 hPASMCs were cultured with serum-starved medium (Humedia-SB containing 1% FBS and antibiotics [Kurabo]), followed by stimulation with serum-starved medium containing 0.1 µM ET-1 or 10 ng/mL recombinant PDGF and treatment with different reagents. The isolated proteins were separated and analyzed by western blotting.
proteins were then isolated with RIPA buffer (25 mM Tris-HCl [pH 7.6], 150 mM NaCl,
1% NP-40, 1% sodium deoxycholate, and 0.1% sodium dodecyl sulfate) containing prote-
ase inhibitors (Protease Inhibitor Cocktail; Nacalai Tesque, Kyoto, Japan) and phosphatase
inhibitors (PhosSTOP; Roche, Basel, Switzerland). Proteins from each sample were sepa-
rated by sodium dodecyl sulfate polyacrylamide gel electrophoresis and transferred onto
polyvinylidene difluoride (PVDF) membranes. The membranes were then blocked with
5% bovine serum albumin diluted in Tris-buffered solution containing 0.05% Tween 20
(TBS-T) for 1 hour at room temperature. The blocked membranes were incubated with
primary antibodies at 4°C overnight, followed by washing with TBS-T. The membranes
were then incubated with a secondary antibody for 1 h at room temperature. Bands were
visualized by a chemiluminescence reaction using Pierce ECL Western Blotting (Thermo
Fisher Scientific, Waltham, MA, CSA) and LAS-4000 (Fuji Film, Tokyo, Japan).
tein expression was normalized to that of -actin.

[2] = test system: phosphorylated MYPT1 in hPASMCs; test: Western blot of MYPT1 phosphorylation (Thr696) in ET-1-stimulated hPASMCs; assay type: cell-based, human; conditions: compound 1 hour, then ET-1 0.1 µM 1 hour, ET-1 did not increase p-MYPT1
hPASMCs = test: Cell proliferation assay (Cell Counting Kit-8) of PDGF-stimulated hPASMCs; conditions: 0.1–10 µM compound, PDGF 10 ng/mL, 72 h
Method: Human pulmonary artery SMCs (hPASMCs) were cultured in Humedia-SG2 (Kurabo, Osaka, Japan) until stimulation and were plated in 96-well plates at 2.5 × 10^3 cells/well in serum-starved medium (Humedia-SB supplemented with 1% fetal bovine serum [FBS] and antibiotics [Kurabo]). […] The proliferation of hPASMCs was evaluated using a Cell Counting Kit-8 (Dojindo Laboratories, Kumamoto, Japan).
hPASMCs were purchased from Kurabo (Osaka, Japan). The cells were cultured in
6-cm Petri dishes coated with fibronectin (Corning, Corning, NY, USA) and Humedia-
SG2 (Kurabo) at 37 °C and 5% CO2 in a humidified air incubator until the other assays
2.4. Cell Proliferation Analysis
hPASMCs were cultured in Humedia-SG2 (Kurabo) until stimulation and were
plated in 96-well plates at 2.5 × 10^3 cells/well in serum-starved medium (Humedia-SB sup-
plemented with 1% FBS and antibiotics [Kurabo]). Then, hPASMCs were incubated with
The proliferation of hPASMCs was evaluated using Cell Counting
Kit-8 assays (Dojindo Laboratories, Kumamoto, Japan) according to the manufacturer’s

[3] = test system: phosphorylation of mTOR in hPASMCs; test: Western blot of mTOR phosphorylation in PDGF-stimulated hPASMCs; conditions: concentration not given, 1 h, then PDGF 10 ng/mL 1 h

Compound | Phosphorylation of MLC (p-MLC/total MLC) ([1]; concentration not given, 1 h) | Ratio of p-MYPT1 (Thr696) to total MYPT1, difference versus ET-1 without compound [2] | Proliferation of hPASMCs induced by PDGF (hPASMCs) | Phosphorylation of MLC (p-MLC/total MLC) ([1]; 10 μM compound 1 h) | Phosphorylation of mTOR (phospho-/total mTOR) [3]
COc1ccccc1Oc1c(NS(=O)(=O)c2ccc(C(C)(C)C)cc2)nc(-c2ncccn2)nc1OCCO [Bosentan] | the difference did not reach significant levels | insignificant | – | – | –
O=S(=O)(c1cccc2cnccc12)N1CCCNCC1 [Fasudil] | – | – | observed only at the highest concentration | significantly decreased | did not have a suppressive effect
O=c1cc(N2CCOCC2)oc2c(-c3ccccc3)cccc12 [LY294002] | – | – | suppressed the proliferation of hPASMCs induced by stimulation with PDGF in a concentration-dependent manner | – | significantly reduced
